Experiments:
[1] = test system: SW480, human primary colon cancer cell line; test: MTT assay, cytotoxicity in SW480; assay type: cell-based; conditions: for IC50: Homo sapiens, SW480, MTT, 72 h, mean ± SD; for SW480 SI (selectivity index): SI = IC50 HaCaT / IC50 SW480
Experimental: (§1) The human cell lines SW480 (primary colon cancer), SW620 (lymph node metastatic colon cancer from the same patient as primary cancer cells), PC3 (metastatic prostate cancer), and HaCaT (immortalized keratinocytes) were obtained from the American Type Culture Collection (ATCC, Rockville, USA). The SW480 and SW620 cells were grown in MEM (ThermoSci, USA), PC3 in RPMI 1640, and HaCaT in DMEM High Glucose (Biowest SAS, France) supplemented with 10% foetal bovine serum (FBS), HEPES (20 mM), and antibiotics (100 U mL^–1 of penicillin and 100 μg mL^–1 of streptomycin). The cells were incubated in a humidified incubator at 37 °C/5% CO2, until 80–90% confluence was reached.
(§2) The cell viability was assessed by using of MTT salt [3-(4,5-dimethylthiazol-2-yl)-2,5-diphenyltetrazolium bromide] converted by mitochondrial dehydrogenase, occurring in living cells. The cells were seeded in 96-well plates at a density of 1 × 10^4 cells per well and allowed to adhere for 24 h at 37 °C in a CO2 humidified incubator. Then, the medium was removed and a fresh medium with various concentrations of tested compounds (from 10 to 120 μM) was added. The untreated cells were used as the control.
(§3) After 72 h incubation, the medium was replaced with 200 μL per well of free serum medium containing 0.5 mg mL^–1 MTT and incubated for 4 h at 37 °C in a CO2 humidified incubator. Subsequently, the medium was removed and dimethyl sulfoxide with isopropanol (1:1) was added to dissolve the formazan crystals. The optical density was measured using a UVM 340 reader (ASYS Hitech GmbH, Austria) at a wavelength of 570 nm. The experiments were repeated three times. The cell viability was calculated as the percent of MTT reduced in treated cells versus control cells (untreated cells). The number of viable cells cultured without tested compounds was assumed as 100%. The decreased relative MTT level indicates decreased cell viability. The IC50 values were estimated using CompuSyn version 1.0.

[2] = test system: SW620, human metastatic colon cancer cell line; test: MTT assay, cytotoxicity in SW620; assay type: cell-based; conditions: for IC50: Homo sapiens, SW-620, MTT, 72 h, mean ± SD; for SW620 SI (selectivity index): SI = IC50 HaCaT / IC50 SW620
Experimental: as §1, §2, §3

[3] = test system: PC3, human prostate cancer cell line; test: MTT assay, cytotoxicity in PC3; assay type: cell-based; conditions: for IC50: Homo sapiens, MTT, 72 h, mean ± SD; for PC3 SI (selectivity index): SI = IC50 HaCaT / IC50 PC3
Experimental: as §1, §2, §3

[4] = test system: HaCaT, human immortalized keratinocyte cell line; test: MTT assay, cytotoxicity in HaCaT; assay type: cell-based; conditions: Homo sapiens, HaCaT, 72 h, mean ± SD, nontumor cells
Experimental: as §1, §2, §3

HaCaT cells = test: Annexin V-FITC/PI binding assay (flow cytometry) in HaCaT; assay type: cell-based, human; conditions: IC50 concentration, 72 h; span stated for compounds 12 and 13 together
Experimental: (§4) The SW480, SW620, PC3, and HaCaT cells were cultured and harvested under the conditions mentioned in the Section 4.5 and seeded in 12-well plates (1 × 10^5 cells per well). […] The apoptotic effect was performed using the Annexin V-FITC/propidium iodide (PI) apoptosis assay kit (Becton Dickinson, Pharmingen), according to the manufacturer’s instructions, and analyzed by flow cytometry (Becton Dickinson). The cells which were Annexin V-FITC-positive and PI-negative were identified as early apoptotic and both Annexin V-FITC- and PI-positive as late apoptotic or necrotic. The experiment was repeated three times.

SW480 cells = test: Annexin V-FITC/PI binding assay (flow cytometry) in SW480; assay type: cell-based, human; conditions: IC50 concentration, 72 h
Experimental: as §4

PC3 cells = test: Annexin V-FITC/PI binding assay (flow cytometry) in PC3; assay type: cell-based, human; conditions: IC50 concentration, 72 h
Experimental: as §4

[5] = test system: ROS production in PC3, SW480, SW620 cells; test: ROS detection, DCFH-DA and DHR-123 assay, cancer cell lines; assay type: cell-based, human; conditions: IC50 concentration; DCF and rhodamine fluorescence intensity
Experimental: (§5) ROS generation was assessed by the spectrofluorometric method using the 2′,7′-dichlorodihydrofluorescein diacetate (DCFH-DA) or dihydrorhodamine 123 (DHR-123). The method is based on the ROS-dependent oxidation of the compounds to fluorescent dichlorofluorescein (DCF) or rhodamine-123, respectively.[61] PC3, SW480, SW620, and HaCaT were seeded on to 96-well plates (5 × 10^4 cells per well) and allowed to adhere for 24 h. Then, cells were rinsed with PBS and incubated with DCFH-DA (5 μM) or DHR-123 (1 μM) for 30 min at 37 °C in the dark. […] A sample with H2O2 (1.5 mM) was a positive control, and a sample without any reagent was a negative control. Maximum excitation and emission spectra for DCF were 492 and 527 nm, and those for rhodamine-123 were 500 and 536 nm, respectively. The generation of H2O2 was measured by Microplate Spectrofluorometer BioTek Synergy (BioTek Instruments, USA) and expressed as fluorescence intensity (FI). Values from three experiments performed in triplicate were analyzed.

[6] = test system: ROS production in HaCaT cells; test: ROS detection, DCFH-DA and DHR-123 assay, HaCaT; assay type: cell-based, human; conditions: IC50 concentration; for ROS level in HaCaT cells (in words): DCF and rhodamine fluorescence intensity; for time of treatment at which the amount of ROS in HaCaT cells was highest: measured after 1, 4, 12, 24 h
Experimental: as §5

SW620 cells = test: Annexin V-FITC/PI binding assay (flow cytometry) in SW620; assay type: cell-based, human; conditions: IC50 concentration, 72 h
Experimental: as §4

IL-6 in SW480 cells = test: Interleukin-6 assay (ELISA) in SW480; assay type: cell-based, human; conditions: IC50 concentration, 72 h, ELISA of culture supernatant
Experimental: (§6) The level of interleukin-6 (IL-6) in SW480, SW620, and PC3 cell lines was measured by commercial human IL-6 ELISA kits Diaclon SAS (Besancon Cedex, France). […] The untreated cells were used as the control. The IL-6 level in a cell culture supernatant was measured using an enzyme-linked immunosorbent assay, in accordance with the manufacturer’s instruction. The experiment was repeated three times.

IL-6 in SW620 cells = test: Interleukin-6 assay (ELISA) in SW620; assay type: cell-based, human; conditions: IC50 concentration, 72 h, ELISA of culture supernatant
Experimental: as §6

IL-6 in PC3 cells = test: Interleukin-6 assay (ELISA) in PC3; assay type: cell-based, human; conditions: IC50 concentration, 72 h, ELISA of culture supernatant, p ≤ 0.001
Experimental: as §6

| SMILES | IC50 [1] | SW480 SI (selectivity index) [1] | IC50 [2] | SW620 SI (selectivity index) [2] | IC50 [3] | PC3 SI (selectivity index) [3] | IC50 [4] | late apoptosis in HaCaT cells (HaCaT cells) | percentage of late apoptotic SW480 cells (SW480 cells) | percentage of necrotic SW480 cells (SW480 cells) | percentage of necrotic PC3 cells (PC3 cells) | ROS level in cancer cell lines (in words) [5] | ROS level in HaCaT cells (in words) [6] | time of treatment at which the amount of ROS in HaCaT cells was highest [6] | early apoptosis in SW620 cells (SW620 cells) | late apoptosis in SW620 cells (SW620 cells) | percentage of late apoptotic PC3 cells (PC3 cells) | decrease of IL-6 concentration in SW480 cells compared to the control (IL-6 in SW480 cells) | decrease of IL-6 concentration in SW620 cells compared to the control (IL-6 in SW620 cells) | inhibition of IL-6 release in PC3 cells, fold more effectively compared to control (IL-6 in PC3 cells) |
| --- | --- | --- | --- | --- | --- | --- | --- | --- | --- | --- | --- | --- | --- | --- | --- | --- | --- | --- | --- | --- |
| CC[C@@H](C(=O)[C@@H](C)[C@@H](O)[C@H](C)CCc1ccc(C)c(O)c1C(=O)OCCC[P+](c1ccccc1)(c1ccccc1)c1ccccc1)[C@H]1O[C@](CC)([C@H]2CC[C@](O)(CC)[C@H](C)O2)C[C@@H]1C [Compound 13, LAS–TPP Conjugate] | 1.4 ± 1.5 µM | 2.3 | 2.3 ± 2.2 µM | 1.4 | 1.8 ± 0.09 µM | 1.8 | 3.2 ± 0.12 µM | 57.26 to 72.01% | 20.15% | 24.82% | 56.81% | significantly higher level of ROS | significantly higher level of ROS | 12 h |  |  |  |  |  |  |
| CC[C@@H](C(=O)[C@@H](C)[C@@H](O)[C@H](C)CCc1ccc(C)c(O)c1C(=O)OC[C@H]1O[C@@H](n2ccc(N)nc2=O)C(F)(F)[C@@H]1O)[C@H]1O[C@](CC)([C@H]2CC[C@](O)(CC)[C@H](C)O2)C[C@@H]1C [Compound 12, LAS–Gemcitabine Conjugate] | 12 ± 0.86 µM | 1.2 | 3.6 ± 1.1 µM | 3.9 | 1.6 ± 1.2 µM | 8.8 | 14 ± 0.22 µM | 57.26 to 72.01% |  | 42.85% | 40.31% | significantly higher level of ROS | slightly elevated level of ROS | 4 h | 14.53% | 14.79% | 39.92% | ~1.0 time | ~1.3 time |  |
| CC[C@@H](C(=O)[C@@H](C)[C@@H](O)[C@H](C)CCc1ccc(C)c(O)c1C(=O)OCc1cc(=O)c(O)co1)[C@H]1O[C@](CC)([C@H]2CC[C@](O)(CC)[C@H](C)O2)C[C@@H]1C [Compound 7, LAS–Kojic Acid Conjugate] | 7.8 ± 0.09 µM | 0.8 | 9.9 ± 0.08 µM | 0.6 | 3.8 ± 0.07 µM | 1.7 | 6.3 ± 0.1 µM |  |  | 22.39% | 26.00% |  |  |  |  |  | 28.24% |  |  | ~1.2 fold |
